Laboratory results reported in paper PMC8453936, “Development and in vitro Profiling of Dual FXR/LTA4H Modulators” (Chemmedchem, 2021).
Values joined by “and” are separate entries in the source; they are usually repeats but may differ in a detail not shown here. Equal values may be shown once. Read-outs that look alike come from different tables or passages of the source.

Tests used:
full-length human FXR [1] = target: T1, full-length human FXR (Homo sapiens, UniProt Q96RI1); details: mean±S.E.M., n≥3, previously reported, cited from earlier work; for FXR efficacy (maximum FXR activation relative to 3 μM GW4064): 3 μM GW4064 = 100 % activation; for EC50 / EC50(FXR): full-length FXR reporter gene assay, BSEP promoter, HeLa
T1 construct: coding for the full‐length human nuclear receptors FXR and RXRα; expressed in transfected cells; host or cells: HeLa
T1 sequence (Q96RI1 1-486): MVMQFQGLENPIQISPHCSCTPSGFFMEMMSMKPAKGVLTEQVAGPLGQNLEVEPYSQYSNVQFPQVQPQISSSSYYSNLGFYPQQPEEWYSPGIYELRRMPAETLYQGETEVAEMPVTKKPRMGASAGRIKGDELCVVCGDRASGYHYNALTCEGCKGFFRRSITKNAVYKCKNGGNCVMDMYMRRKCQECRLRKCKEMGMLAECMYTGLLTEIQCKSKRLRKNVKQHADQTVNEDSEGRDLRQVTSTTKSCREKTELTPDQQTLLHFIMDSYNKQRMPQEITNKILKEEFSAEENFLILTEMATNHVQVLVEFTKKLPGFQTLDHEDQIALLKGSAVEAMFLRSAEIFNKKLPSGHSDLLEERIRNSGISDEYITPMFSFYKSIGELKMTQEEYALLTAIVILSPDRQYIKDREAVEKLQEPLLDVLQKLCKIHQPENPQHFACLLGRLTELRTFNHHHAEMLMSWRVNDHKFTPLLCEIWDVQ
T1 sequence (P19793 1-462 partner): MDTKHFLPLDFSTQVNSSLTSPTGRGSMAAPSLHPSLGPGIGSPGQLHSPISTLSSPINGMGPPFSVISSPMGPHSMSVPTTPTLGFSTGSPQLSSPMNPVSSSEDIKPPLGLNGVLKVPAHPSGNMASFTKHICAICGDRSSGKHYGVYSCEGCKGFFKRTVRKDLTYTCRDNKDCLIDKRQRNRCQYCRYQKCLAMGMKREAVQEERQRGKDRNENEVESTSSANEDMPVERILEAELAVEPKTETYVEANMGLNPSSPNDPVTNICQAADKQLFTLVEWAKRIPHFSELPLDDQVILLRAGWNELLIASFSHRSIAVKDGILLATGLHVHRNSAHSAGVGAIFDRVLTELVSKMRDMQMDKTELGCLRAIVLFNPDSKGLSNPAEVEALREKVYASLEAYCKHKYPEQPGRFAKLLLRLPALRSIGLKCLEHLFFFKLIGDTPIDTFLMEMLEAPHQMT

recombinant human LTA4H = target: T2, recombinant human LTA4H (Homo sapiens, UniProt P09960); details: for LTA4H max. inhib.: LTA4H inhibition at the highest tested concentration (up to 100 μM), mean±S.E.M., n=3
T2 sequence (P09960 1-611): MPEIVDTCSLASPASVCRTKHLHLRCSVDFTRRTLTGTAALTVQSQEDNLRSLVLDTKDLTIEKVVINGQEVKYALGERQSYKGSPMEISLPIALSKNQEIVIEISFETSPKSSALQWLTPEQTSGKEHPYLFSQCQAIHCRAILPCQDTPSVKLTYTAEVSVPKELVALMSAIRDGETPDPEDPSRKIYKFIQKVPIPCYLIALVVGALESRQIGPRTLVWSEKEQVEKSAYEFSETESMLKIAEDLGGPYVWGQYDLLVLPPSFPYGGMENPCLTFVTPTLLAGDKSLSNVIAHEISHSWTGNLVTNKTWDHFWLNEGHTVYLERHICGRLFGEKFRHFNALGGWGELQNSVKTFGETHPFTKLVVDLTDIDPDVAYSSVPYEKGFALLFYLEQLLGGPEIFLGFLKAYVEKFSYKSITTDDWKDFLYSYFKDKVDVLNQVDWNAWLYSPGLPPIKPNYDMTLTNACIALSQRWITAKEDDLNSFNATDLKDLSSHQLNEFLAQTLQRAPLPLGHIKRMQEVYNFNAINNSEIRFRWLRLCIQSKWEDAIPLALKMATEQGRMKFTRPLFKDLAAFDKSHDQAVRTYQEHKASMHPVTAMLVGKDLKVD
Description: FXR modulation by 3–20 was characterized in a cellular (HeLa, transiently transfected) full‐length FXR reporter gene assay employing the human FXR response element from the promoter region of bile salt export protein (BSEP) to govern firefly luciferase expression as reporter gene.[26, 27] FXR and its natural heterodimer partner retinoid X receptor (RXR) were constitutively over‐expressed and a constitutively expressed renilla luciferase was present as internal control for transfection efficiency and cellular health.
LTA4H assay. […] The assay was performed in black polystyrol 96‐well plates in a final volume of 100 μL. Test compound solution in DMSO (1 μL) or DMSO alone as control were incubated with 89 μl protein mixture (containing LTA4H, buffer and Triton‐X‐100). After 30 min, 10 μl of substrate mixture (containing L‐arginin‐7‐amido‐4‐methylcumarine and DMSO in buffer) were added. […] A blank measurement containing no protein was performed and treated as 0 % conversion control. All samples were measured in triplicates and each experiment was conducted in three independent repeats.

full-length human FXR [2] = target: T1, full-length human FXR; assay: Full-length FXR:RXR reporter gene assay (BSEP promoter, HeLa, transiently transfected); assay type: cell-based; details: mean±S.E.M., n≥3; for FXR efficacy (maximum FXR activation relative to 3 μM GW4064): 3 μM GW4064 = 100 % activation; for EC50: full-length FXR reporter gene assay, BSEP promoter, HeLa
Description: Full‐length FXR:RXR reporter gene assay. HeLa cells were grown in DMEM high glucose supplemented with 10 % FCS, sodium pyruvate (1 mM), penicillin (100 U/mL) and streptomycin (100 μg/mL) at 37 °C and 5 % CO2 and seeded in 96‐well plates 24 h before transfection with a density of 8000 cells per well. 3.5 h before transfection, medium was changed to DMEM high glucose, supplemented with sodium pyruvate (1 mM), penicillin (100 U/mL), streptomycin (100 μg/mL) and 0.5 % charcoal‐stripped FCS. Cells were then transiently transfected with using the calcium phosphate transfection method with pGL3basic‐BSEP[26, 27] (containing a shortened construct of the promotor of the bile salt export protein (BSEP) cloned into the SacI/NheI cleavage site in front of the luciferase gene), pcDNA3‐hFXR[26] and pSG5‐hRXR[38] coding for the full‐length human nuclear receptors FXR and RXRα, and pRL‐SV40 (Promega) for normalization of transfection efficiency and cell growth. 16 h after transfection, medium was changed to DMEM high glucose, supplemented with sodium pyruvate (1 mM), penicillin (100 U/mL), streptomycin (100 μg/mL) and 0.5 % charcoal‐stripped FCS. 24 h after transfection, medium was changed to DMEM without phenol red, supplemented with sodium pyruvate (1 mM), penicillin (100 U/mL), streptomycin (100 μg/mL), L‐glutamine (2 mM) and 0.5 % charcoal‐stripped FCS, now additionally containing 0.1 % DMSO and the respective test compound or 0.1 % DMSO alone as untreated control. Each sample was tested in triplicate wells and each experiment was repeated independently at least three times. Following 24 h incubation with the test compounds, cells were assayed for luciferase activity using Dual‐Glo Luciferase Assay System (Promega) according to the manufacturer's protocol. Luminescence was measured with a Tecan Spark M luminometer (Tecan). Normalization of transfection efficiency and cell growth was done by division of firefly luciferase data by Renilla luciferase data multiplied by 1000 resulting in relative light units (RLU). Fold activation was obtained by dividing the mean RLU of the tested compound at a respective concentration by the mean RLU of untreated control. EC50 and standard error of the mean values were calculated with the mean fold activation values of at least three independent experiments with SigmaPlot 10.0 (Systat Software GmbH, Erkrath, Germany) using a four‐parameter logistic regression.

| SMILES | FXR efficacy (maximum FXR activation relative to 3 μM GW4064) (full-length human FXR [1]) | EC50 (full-length human FXR [1]) [µM] | IC50 (recombinant human LTA4H) [µM] | LTA4H max. inhib. (recombinant human LTA4H) [%] | FXR efficacy (maximum FXR activation relative to 3 μM GW4064) (full-length human FXR [2]) | EC50 (full-length human FXR [2]) [µM] | EC50(FXR) (full-length human FXR [1]) |
| --- | --- | --- | --- | --- | --- | --- | --- |
| O=C(O)c1cccc(NC(=O)c2ccc(Oc3ccccc3)cc2)c1 [compound 11] | 35±1% | 0.001 ± 0.0003 | 0.55 ± 0.06 | 98.2±0.1 |  |  |  |
| O=C(O)c1cccc(NC(=O)c2ccc(Oc3cccc(-c4ccccc4)c3)cc2)c1 [compound 12] |  |  | 5.2 ± 0.6 | 81.1±0.6 | 14% and 14±1% | 0.3 ± 0.1 |  |
| O=C(O)c1ccc(NC(=O)c2ccc(OCCCCc3ccccc3)cc2)cc1 [compound 7] | 29±1% | 0.014 ± 0.001 | 0.37 ± 0.02 | 97.8±0.1 |  |  |  |
| O=C(Nc1cccc2c(=O)cc(C(=O)O)oc12)c1ccc(OCCCCc2ccccc2)cc1 [compound 5] |  |  | 15 ± 2 | 80±5 |  |  | inactive (50 μM) |
| O=C(O)c1ccc(NC(=O)c2ccc(OCCCc3ccccc3)cc2)cc1 [compound 16] |  |  | 0.2 ± 0.02 | 98.8±0.1 |  |  |  |
| O=C(O)c1ccnc(NC(=O)c2ccc(Oc3ccccc3)cc2)c1 [compound 15] | 56±1% | 0.07 ± 0.02 | 2.1 ± 0.1 | 89.6±0.6 |  |  |  |
| O=C(Nc1nc(C(=O)O)co1)c1ccc(OCCCc2ccccc2)cc1 [compound 20] |  |  |  | 99.7±0.1 | 30±1% | 11 ± 2 |  |
| O=C(O)c1cccc(NC(=O)c2ccc(OCCc3ccccc3)cc2)c1 [compound 9] | 56±1% | 0.15 ± 0.02 | 0.61 ± 0.06 | 96.0±0.2 |  |  |  |
| O=C(O)Cc1cccc(NC(=O)c2ccc(OCCCc3ccccc3)cc2)c1 [compound 17] |  |  | 1.9 ± 0.1 | 97.0±0.2 |  | > 30 |  |
| COc1c(NC(=O)c2ccc(OCCCCc3ccccc3)cc2)cccc1C(=O)O [compound 6] | 26±1% | 0.19 ± 0.02 | 5.5 ± 0.5 | 85±2 |  |  |  |
| CS(=O)(=O)Nc1cccc(NC(=O)c2ccc(OCCCc3ccccc3)cc2)c1 [compound 18] |  |  | 0.13 ± 0.01 | 89.5±0.5 | 35±2% | 1.6 ± 0.4 |  |
| O=C(Nc1cccc(C(=O)O)n1)c1ccc(Oc2ccccc2)cc1 [compound 13] |  |  | 0.28 ± 0.02 | 90.8±0.3 |  |  | antagonist |
| O=C(O)c1cccc(NC(=O)c2ccc(OCCCCc3ccccc3)cc2)c1 [compound 3] | 34% and 34±1% |  | 0.54 ± 0.07 | 97.2±0.4 |  |  |  |
| O=C(O)c1cccc(NC(=O)c2ccc(OCc3ccccc3)cc2)c1 [compound 10] | 20±1% |  | 1.1 ± 0.1 | 94.9±0.2 |  |  |  |
| O=C(Nc1cccc2c(=O)cc(-c3nnn[nH]3)oc12)c1ccc(OCCCCc2ccccc2)cc1 [compound 4, pranlukast, reference compound] |  |  | 1.6 ± 0.2 | 82.6±0.8 |  |  |  |
| O=C(Nc1ccnc(C(=O)O)c1)c1ccc(Oc2ccccc2)cc1 [compound 14] |  |  | 0.95 ± 0.01 | 97.9±0.1 |  |  |  |
